US20250295639A1, “METHODS FOR TREATING HEART DISEASES” (Cytokinetics, Incorporated, priority 2024, published 2025)
Values joined by “and” are separate entries in the source; they are usually repeats but may differ in a detail not shown here. Equal values may be shown once.

System: patients with symptomatic oHCM
Test: SEQUOIA-HCM: cardiopulmonary exercise testing (CPET), incl. by baseline beta blocker use
Format: in vivo, human
Description: The primary objective of this trial was to evaluate the effect of aficamten on exercise capacity in patients with symptomatic oHCM. The indicated endpoint was a change in peak oxygen uptake (pVO2) by cardiopulmonary exercise testing (CPET) from baseline to Week 24. A further secondary objective was to evaluate the effect of aficamten on exercise capacity, as determined by change in total workload during CPET from baseline to Week 24. A further exploratory objective of this trial was to evaluate the effect of aficamten on other CPET parameters, as determined by changes from baseline to Week 24 in: (1) ventilator efficiency (VE/VCO2 slope); (2) circulatory power (VO2× systolic BP); and (3) ventilator anaerobic threshold (VAT). Cardiopulmonary Exercise Testing (CPET). All patients underwent CPET with gas-exchange analysis and the methodology will be standardized across all participating sites, as described in the CPET manual. Testing included continuous ECG monitoring by trained personnel and was performed in an area that was equipped for cardiopulmonary resuscitation. Treadmill was the preferred modality for exercise testing. […] Exercise protocols for both modalities were provided in the CPET manual. Patients had to use the same testing modality for all exercise tests during the trial. Whenever possible, CPET was administered by the same trial personnel using the same equipment and performed after the other trial procedures on that visit day (including echocardiogram, KCCQ, EQ-5D-5L, CGI, PGI-C, NYHA class, SAQ-7, vital signs, ECG, blood sampling, IP administration). Patients naïve to exercise protocols were familiarized with the technique during screening. All CPET testing was symptom-limited and patients were strongly encouraged to achieve maximal exertion and an RER ≥1.05. The reason(s) for termination of sub-maximal exercise tests were documented. A test was identified as being maximal effort if the RER is ≥1.05. The Week 24 CPET was performed at approximately the same time of day (eg, morning, mid-day, afternoon) as the baseline CPET at screening, at a consistent time after the last dose of beta blocker and IP. Whenever possible, patients performed exercise testing between three and ten hours after taking beta blocking agents. CPET End Points. We looked at whether aficamten would improve a novel measure of integrated exercise performance that combines complementary measures previously independently related to oHCM prognosis, and that incorporates both submaximal and maximal exercise capacity. A primary outcome was the change from baseline to week 24 in integrated exercise performance, defined as the 2-component Z-score of pVO2 and ventilatory efficiency (VE/VCO2 slope). Response rates for achieving clinically meaningful thresholds for change in pVO2 and correlations with clinical measures of treatment effect (health status, echocardiographic, cardiac biomarkers) were also assessed. The primary analysis was the change from baseline to Week 24 in integrated exercise performance, normalized to a composite of Z-scores for pVO2 and VE/VCO2 slope to capture physiologic responses to maximal and submaximal exercise. The Z-score was derived by reversing the directionality of VE/VCO2 slope such that increases in both Z-score components indicate benefit and equal weights were used for each Z-score component. Secondary end points included assessments for changes from baseline to week 24 in CPET-derived measures during 2 phases of exercise performance: (1) peak exercise (pVO2, peak workload, peak metabolic equivalents [METS], peak circulatory power [VO2× systolic blood pressure], exercise duration, peak respiratory exchange ratio [RER], heart rate reserve, peak heart rate, O2 pulse at peak exercise, proportionate pulse pressure); and (2) during submaximal exercise (pre-anaerobic threshold VE/VCO2 slope, VE/VCO2 slope throughout exercise, ventilatory power, ventilatory anaerobic threshold, and aerobic efficiency). Beta Blocker Co-administration. […]

[1] = Baseline Beta Blocker Use: Yes, Baseline
[2] = Baseline Beta Blocker Use: Yes, Week 24
[3] = aficamten versus placebo, 24 weeks
[4] = patients treated with aficamten

With `CCc1nc(-c2ccc3c(c2)CC[C@H]3NC(=O)c2cnn(C)c2)no1` [aficamten, (R)—N-(5-(5-ethyl-1,2,4-oxadiazol-3-yl)-2,3-dihydro-1H-inden-1-yl)-1-methyl-1H-pyrazole-4-carboxamide] the “peak METs (pVO2/3.5 (mL/kg/min)) on CPET, Week 24, Median” value (Baseline Beta Blocker Use: No, Week 24) was 5.66 METs, the “Change in Exercise Duration on CPET from Baseline to Week 24, LS Mean (SE)” value (Baseline Beta Blocker Use: Yes) was 1.0 (0.22) minutes and the “Change in Exercise Duration on CPET from Baseline to Week 24, LS Mean Diff vs. Placebo (SE)” value (Baseline Beta Blocker Use: Yes) was 0.9 (0.30) minutes. The “Change in Exercise Duration on CPET from Baseline to Week 24, Mean (SD)” value (Baseline Beta Blocker Use: Yes) was 1.1 (1.98) minutes, the “Change in Exercise Duration on CPET from Baseline to Week 24, Median” value (Baseline Beta Blocker Use: Yes) was 0.5 min and the “Change in peak METs from Baseline to Week 24, LS Mean (SE)” value (Baseline Beta Blocker Use: Yes) was 0.40 (0.093) METs. For the same compound, the “Change in peak METs from Baseline to Week 24, LS Mean Diff vs. Placebo (SE)” value (Baseline Beta Blocker Use: Yes) was 0.46 (0.130) METs, the “Change in peak METs from Baseline to Week 24, Mean (SD)” value (Baseline Beta Blocker Use: Yes) was 0.41 (0.781) METs and the “Change in peak METs from Baseline to Week 24, Median” value (Baseline Beta Blocker Use: Yes) was 0.31 METs. The “Exercise Duration on CPET, Baseline, Mean (SD)” value [1] was 11.4 (2.55) minutes, the “Exercise Duration on CPET, Baseline, Median” value [1] was 11.1 min and the “peak METs (pVO2/3.5 (mL/kg/min)) on CPET, Baseline, Mean (SD)” value [1] was 5.24 (1.251) METs. The “peak METs (pVO2/3.5 (mL/kg/min)) on CPET, Baseline, Median” value [1] was 5.28 METs, the “Exercise Duration on CPET, Week 24, Mean (SD)” value [2] was 12.5 (3.61) minutes and the “Exercise Duration on CPET, Week 24, Median” value [2] was 12.4 min. The “peak METs (pVO2/3.5 (mL/kg/min)) on CPET, Week 24, Mean (SD)” value [2] was 5.70 (1.497) METs, the “peak METs (pVO2/3.5 (mL/kg/min)) on CPET, Week 24, Median” value [2] was 5.64 METs and the “patients with large pVO2 deteriorations/reductions (≥3.0 mL/kg/min)” value (aficamten group, 24 weeks) was 2%. For the same compound, the “Any Deterioration in pVO2, NNT” value [3] was −3.8, the “Any Deterioration in pVO2, OR” value [3] was 0.32 and the “Any Deterioration in pVO2, Risk Difference” value [3] was −26%. For the same compound, the “Any Improvement in pVO2, NNT” value [3] was 3.8 and < 4, the “Any Improvement in pVO2, OR” value [3] was 3.09 and the “Any Improvement in pVO2, Risk Difference” value [3] was “+26%”. The “Large Improvement in pVO2, NNT” value [3] was 6.3, the “Large Improvement in pVO2, OR” value [3] was 2.44 and the “Large Improvement in pVO2, Risk Difference” value [3] was “+15.%”. The “Moderate/Large Improvement in pVO2, NNT” value [3] was 4.7, the “Moderate/Large Improvement in pVO2, OR” value [3] was 2.44 and the “Moderate/Large Improvement in pVO2, Risk Difference” value [3] was “+21%”. For the same compound, the “Any Improvement in pVO2, NNT” value (aficamten versus placebo, 24 weeks, listed as Aficamten) was 3.8, the “Aerobic efficiency, Adjusted difference (LS mean treatment difference)” value (aficamten vs placebo, week 24) was 0.2 mL/min/watt and the “Exercise duration, Adjusted difference (LS mean treatment difference)” value (aficamten vs placebo, week 24) was 1.0 min. The “Heart rate reserve, Adjusted difference (LS mean treatment difference)” value (aficamten vs placebo, week 24) was 6, the “Integrated 2 component Z-score metric, Adjusted difference (LS mean treatment difference)” value (aficamten vs placebo, week 24) was “+0.35” and the “O2 pulse at peak exercise, Adjusted difference (LS mean treatment difference)” value (aficamten vs placebo, week 24) was 0.003 mL/beat. For the same compound, the “Peak circulatory power, Adjusted difference (LS mean treatment difference)” value (aficamten vs placebo, week 24) was 586 mmHg*mL/min/kg, the “Peak heart rate, Adjusted difference (LS mean treatment difference)” value (aficamten vs placebo, week 24) was 9 beats/min and the “Peak respiratory exchange ratio, Adjusted difference (LS mean treatment difference)” value (aficamten vs placebo, week 24) was 0.00. The “Peak workload, Adjusted difference (LS mean treatment difference)” value (aficamten vs placebo, week 24) was 12 watt, the “Proportionate pulse pressure (peak), Adjusted difference (LS mean treatment difference)” value (aficamten vs placebo, week 24) was 0.01 and the “Proportionate pulse pressure (rest), Adjusted difference (LS mean treatment difference)” value (aficamten vs placebo, week 24) was −0.01. For the same compound, the “Ventilatory anaerobic threshold, Adjusted difference (LS mean treatment difference)” value (aficamten vs placebo, week 24) was 59 mL, the “Ventilatory efficiency pre-anaerobic threshold (VE/VCO2 slope), Adjusted difference (LS mean treatment difference)” value (aficamten vs placebo, week 24) was −1.5 and the “Ventilatory efficiency throughout exercise (VE/VCO2 slope), Adjusted difference (LS mean treatment difference)” value (aficamten vs placebo, week 24) was −2.3. For the same compound, the “Ventilatory power, Adjusted difference (LS mean treatment difference)” value (aficamten vs placebo, week 24) was 0.9 mmHg, the “pVO2, Adjusted difference (LS mean treatment difference)” value (aficamten vs placebo, week 24) was 1.7 mL/kg/min and the “Integrated 2 component Z-score metric, Adjusted difference (LS mean treatment difference)” value (aficamten vs placebo, week 24, listed as Aficamten) was 0.35. For the same compound, the “improvement in Exercise Duration on CPET: influence of beta blockers” value (baseline to Week 24) was “not significantly diminished by the use of beta blockers”, the “improvement in peak metabolic equivalents (peak METs) on CPET: influence of beta blockers” value (baseline to Week 24) was “not significantly diminished by the use of beta blockers” and the “times less likely to experience worsening of pVO2 than those on placebo” value (categorical threshold analyses) was “more than 5 times”. The “patients who experienced an improvement in pVO2” value [4] was 72.2%, the “patients with large improvement (≥3.0 mL/kg/min) in pVO2” value [4] was 27.8% and the “patients with moderate improvement (≥1.5 to <3.0 mL/kg/min) in pVO2” value [4] was 21.8%. For the same compound, the “patients with small improvement (0 to <1.5) in pVO2” value [4] was 22.6%, the “LSM difference in pVO2 (95% CI)” value (patients who were also on beta blockers) was 1.6 (0.7 to 2.5) mL/kg/min and the “LSM difference in pVO2 (95% CI)” value (patients who were not on beta blockers) was 1.9 (0.8 to 3.1) mL/kg/min.
